The values below come from PMC9570328, “Spatial Structure of NanoFAST in the Apo State and in Complex with its Fluorogen HBR-DOM2” (International Journal of Molecular Sciences, 2022).

Assay [1] has as its target T1, nanoFAST (Halorhodospira halophila, UniProt P16113, C69G/Y94W/T95M/F96I/D97P/Y98T/Q99S/M100R).
T1 construct: gene pyp; nanoFAST: FAST lacking the first 26 residues (98 amino acids); engineered variant of PYP
T1 sequence (P16113 27-125 C69G/Y94W/T95M/F96I/D97P/Y98T/Q99S/M100R): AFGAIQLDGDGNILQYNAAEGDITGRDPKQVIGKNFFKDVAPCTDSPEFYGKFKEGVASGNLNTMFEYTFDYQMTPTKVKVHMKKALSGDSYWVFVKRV
Put plainly: solution NMR structure of the complex, […] intermolecular NOE distances. Format: binding. The conditions noted are these: cited from earlier work.

In assay [2] the target is T2, FAST (Halorhodospira halophila, UniProt P16113, C69G/D97P/F96I/M100R/Q99S/T95M/Y94W/Y98T).
T2 construct: gene pyp; full-length FAST (engineered variant of PYP)
T2 sequence (P16113 whole entry C69G/Y94W/T95M/F96I/D97P/Y98T/Q99S/M100R): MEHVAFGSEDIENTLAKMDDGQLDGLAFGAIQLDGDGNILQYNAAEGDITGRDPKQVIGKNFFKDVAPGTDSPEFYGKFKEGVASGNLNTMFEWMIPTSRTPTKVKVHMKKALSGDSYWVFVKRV
Description: spectrofluorometric titration (Table S1). The format is binding.

In assay [3] the target is T1, nanoFAST. Description: fluorescence titration; weak binding, seen only at […] protein.

What is called Kd is the concentration at which binding is half-saturated. As for `COc1cc(/C=C2\SC(=S)NC2=O)c(OC)cc1O` [HBR-DOM2], the Kd in assay [1] was 850 nM.

In assay [2], `COc1cc(/C=C2\N=C(C)N(C)C2=O)c(OC)cc1O` [N1036] yielded a Kd of 710 nM.

`COc1cc(O)ccc1/C=C1N=C(/C=C/c2ccncc2)N(C)C\1=O` [N871b]: the “fluorescence titration; weak binding, seen only at ~100 μM protein” value in assay [3] is listed as “N871b is bright when bound to nanoFAST, but its binding affinity is extremely weak”.

With `COc1cc(/C=C2N=C(/C=C/c3ccncc3)N(C)C\2=O)c(OC)cc1O` [N1048], the Kd in assay [2] amounted to 150 nM.
